Ratio, ED50 and IC50 data for five compounds are collected here from ChEMBL document CHEMBL3046123, “Molecular bases for resistance to acetyl-coenzyme A carboxylase inhibitor in Japanese foxtail (Alopecurus japonicus)” (Pest Manag Sci, 2012).

The subject of test [1] is Alopecurus japonicus. Nature of the test: Resistance index, ratio of ED50 for haloxyfop-R-methyl-resistant Alopecurus japonicus (Japanese foxtail) biotype Js-R to ED50 for haloxyfop-R-methyl-sensitive Alopecurus japonicus (Japanese foxtail) biotype Js-S. The class given is functional.
In test [2] the test system is Alopecurus japonicus. The experiment in a line: Herbicidal activity against haloxyfop-R-methyl-sensitive Alopecurus japonicus (Japanese foxtail) biotype Js-S assessed as inhibition of shoot length after 14 days. In kind it is functional.
The test system of test [3] is Alopecurus japonicus. The experiment in a line: Herbicidal activity against haloxyfop-R-methyl-resistant Alopecurus japonicus (Japanese foxtail) biotype Js-R assessed as inhibition of shoot length after 14 days. The class given is functional.
In test [4] the target is T1, ACCase (Alopecurus japonicus, UniProt H9BT73). The experiment in a line: Inhibition of Acetyl-CoA carboxylase (ACCase) in haloxyfop-R-methyl-resistant Alopecurus japonicus (Japanese foxtail) biotype Js-R shoot extracts. The conditions noted are these: read-out: I50.
Test [5] deals with ACCase (Alopecurus japonicus) (UniProt H9BT73). Nature of the test: Resistance index, ratio of I50 for ACCase in haloxyfop-R-methyl-resistant Alopecurus japonicus (Japanese foxtail) biotype Js-R to I50 for Acetyl-CoA carboxylase (ACCase) in haloxyfop-R-methyl-sensitive Alopecurus japonicus (Japanese foxtail) biotype Js-S.
The target in test [6] is T1, ACCase. Nature of the test: Inhibition of Acetyl-CoA carboxylase (ACCase) in haloxyfop-R-methyl-sensitive Alopecurus japonicus (Japanese foxtail) biotype Js-S shoot extracts. Particulars: read-out: I50.

Take `C#CCOC(=O)[C@@H](C)Oc1ccc(Oc2ncc(Cl)cc2F)cc1` [CLODINAFOP PROPARGYL]: the Ratio in test [1] is recorded as 5.84. In addition, the ED50 in test [2] was 0.721 mg/m2; in test [3], 4.209 mg/m2.
For `CCCCOC(=O)[C@H](C)Oc1ccc(Oc2ccc(C#N)cc2F)cc1` [CYHALOFOP-BUTYL], the Ratio in test [1] is 4.85. For the same compound, the ED50 worked out at 0.144 mg/m2 in test [2] and 0.698 mg/m2 in test [3].
Regarding `CCOC(=O)[C@@H](C)Oc1ccc(Oc2nc3ccc(Cl)cc3o2)cc1` [FENOXAPROP-P-ETHYL], the Ratio in test [1] amounted to 11.35. For the same compound, the results for the ED50 in test [2] and in test [3] were 0.114 mg/m2 and 1.289 mg/m2, respectively.
With `CC(Oc1ccc(Oc2ncc(C(F)(F)F)cc2Cl)cc1)C(=O)O` (stereo not given) [HALOXYFOP], the IC50 in test [4] came out at 28 nM; in test [6], 2.6 nM. Besides, the Ratio in test [5] was 10.8.
Regarding `CCOC(=O)[C@@H](C)Oc1ccc(Oc2cnc3cc(Cl)ccc3n2)cc1` [QUIZALOFOP-P-ETHYL], in test [1], the Ratio came to 35.87. For the same compound, the ED50 in test [2] came to 0.426 mg/m2; in test [3], 15.283 mg/m2.
